Results published in patent US11976061B2, “Preparation of benzimidazolone derivatives as novel diacylglyceride O-acyltransferase 2 inhibitors” (Merck Sharp & Dohme LLC, priority 2020, dated 2024).
Like-named read-outs stand apart in the source and are kept apart here.

Target: T1, human DGAT2 (hDGAT2) (Homo sapiens, UniProt Q96PD7)
T1 construct: made in house; host or cells: Sf-9 insect cells (baculovirus), membrane fraction
T1 sequence (Q96PD7 1-388): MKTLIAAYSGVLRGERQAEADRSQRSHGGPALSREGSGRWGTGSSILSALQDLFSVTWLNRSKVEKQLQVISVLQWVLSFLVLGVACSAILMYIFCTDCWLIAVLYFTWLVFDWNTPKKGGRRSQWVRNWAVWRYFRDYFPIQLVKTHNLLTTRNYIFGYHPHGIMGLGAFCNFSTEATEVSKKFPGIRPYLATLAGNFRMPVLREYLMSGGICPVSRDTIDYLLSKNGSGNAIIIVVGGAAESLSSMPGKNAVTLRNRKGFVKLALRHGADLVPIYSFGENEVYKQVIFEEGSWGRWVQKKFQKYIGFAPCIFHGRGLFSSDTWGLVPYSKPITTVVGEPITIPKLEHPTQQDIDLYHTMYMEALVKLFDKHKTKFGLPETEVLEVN
Experiment: DGAT2 Enzymatic Activity Assay
Assay type: biochemical
Conditions: membrane prep of Sf-9 cells expressing hDGAT2, 25 μM diolein, 5 μM 13C oleoyl-CoA, 13C18-triolein by LC/MS/MS
In short: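 Membranes from Sf-9 cells expressing untagged human DGAT2 (8 ng/μL) incubated at rt in 100 mM Tris·Cl pH 7.0, 20 mM MgCl2, 5% ethanol with 25 μM diolein and 5 μM 13C oleoyl-CoA. 13C18-triolein product quantified by LC/MS/MS against 13C21-triolein internal standard; IC50 by 4-parameter fit.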

Compound	IC50 (read-out: DGAT2 IC50) [nM]	IC50 (read-out: Human DGAT2 IC50) [nM]
CC(C)n1c(=O)n(-c2cc(OC(F)F)ccc2F)c2ncc(C(=O)NC3(C)CS(=O)(=O)C3)cc21 [Example 102, 3-[5-(difluoromethoxy)-2-fluoro-phenyl]-1-isopropyl-N-(3-methyl-1,1-dioxo-thietan-3-yl)-2-oxo-imidazo[4,5-b]pyridine-6-carboxamide]	148	
CC(C)n1c(=O)n(-c2cccc(OC(F)F)c2)c2ncc(C(=O)NC3(C)CS(=O)(=O)C3)cc21 [Example 104, 3-[3-(difluoromethoxy)phenyl]-1-isopropyl-N-(3-methyl-1,1-dioxo-thietan-3-yl)-2-oxo-imidazo[4,5-b]pyridine-6-carboxamide]	94	
CC(C)n1c(=O)n(-c2cccc(OC(F)F)c2)c2cnc(C(=O)NC3(C)CS(=O)(=O)C3)cc21 [Example 105, 3-(3-(difluoromethoxy)phenyl)-1-isopropyl-N-(3-methyl-1,1-dioxidothietan-3-yl)-2-oxo-2,3-dihydro-1H-imidazo[4,5-c]pyridine-6-carboxamide]		1800
CC(C)n1c(=O)n(-c2cccc(OC(F)F)c2)c2cnc(C(=O)NC3(C)CCS(=O)(=O)CC3)cc21 [Example 106, 3-(3-(difluoromethoxy)phenyl)-1-isopropyl-N-(4-methyl-1,1-dioxidotetrahydro-2H-thiopyran-4-yl)-2-oxo-2,3-dihydro-1H-imidazo[4,5-c]pyridine-6-carboxamide]		69.8
CC(C)n1c(=O)n(-c2cccc(OC(F)F)c2)c2ccc(C(=O)NC3(C)CS(=O)(=O)C3)nc21 [Example 107, 1-(3-(difluoromethoxy)phenyl)-3-isopropyl-N-(3-methyl-1,1-dioxidothietan-3-yl)-2-oxo-2,3-dihydro-1H-imidazo[4,5-b]pyridine-5-carboxamide]		1080
CC(C)n1c(=O)n(-c2cccc(OC(F)F)c2)c2c(F)cc(C(=O)NC3(C)CS(=O)(=O)C3)cc21 [Example 108, 1-[3-(difluoromethoxy)phenyl]-7-fluoro-3-isopropyl-N-(3-methyl-1,1-dioxo-thietan-3-yl)-2-oxo-benzimidazole-5-carboxamide]		12
CC(C)n1c(=O)n(-c2cccc(OC(F)F)c2)c2c(F)cc(C(=O)N[C@@]3(C)CCS(=O)(=O)C3)cc21 [Example 109, 1-[3-(difluoromethoxy)phenyl]-7-fluoro-3-isopropyl-N-[(3S)-3-methyl-1,1-dioxo-thiolan-3-yl]-2-oxo-benzimidazole-5-carboxamide]	9	
CC(C)n1c(=O)n(-c2cccc(OC(F)F)c2)c2c(F)cc(C(=O)N[C@]3(C)CCS(=O)(=O)C3)cc21 [Example 110, 1-[3-(difluoromethoxy)phenyl]-7-fluoro-3-isopropyl-N-[(3R)-3-methyl-1,1-dioxo-thiolan-3-yl]-2-oxo-benzimidazole-5-carboxamide]	7	
CC(C)n1c(=O)n(-c2cccc(OC(F)F)c2)c2c(F)cc(C(=O)NC3(C)CCS(=O)(=O)CC3)cc21 [Example 111, 1-[3-(difluoromethoxy)phenyl]-7-fluoro-3-isopropyl-N-(4-methyl-1,1-dioxo-thian-4-yl)-2-oxo-benzimidazole-5-carboxamide]	68	
CC(C)n1c(=O)n(-c2cccc(OC(F)F)c2)c2cc(F)c(C(=O)NC3(C)CCS(=O)(=O)CC3)cc21 [Example 112, 1-(3-(Difluoromethoxy)phenyl)-6-fluoro-3-isopropyl-N-(4-methyl-1,1-dioxidotetrahydro-2H-thiopyran-4-yl)-2-oxo-2,3-dihydro-1H-benzo[d]imidazole-5-carboxamide]		73.8
CC(C)n1c(=O)n(-c2cccc(OC(F)F)c2)c2cc(F)c(C(=O)N[C@]3(C)CCS(=O)(=O)C3)cc21 [Example 113, (R)-1-(3-(Difluoromethoxy)phenyl)-6-fluoro-3-isopropyl-N-(3-methyl-1,1-dioxidotetrahydrothiophen-3-1)-2-oxo-2,3-dihydro-1H-benzo[d]imidazole-5-carboxamide]	78	
CC(C)n1c(=O)n(-c2cccc(OC(F)F)c2)c2cc(F)c(C(=O)N[C@@]3(C)CCS(=O)(=O)C3)cc21 [Example 114, (S)-1-(3-(Difluoromethoxy)phenyl)-6-fluoro-3-isopropyl-N-(3-methyl-1,1-dioxidotetrahydrothiophen-3-yl)-2-oxo-2,3-dihydro-1H-benzo[d]imidazole-5-carboxamide]	80	
CC(C)n1c(=O)n(-c2cc(OCC(F)F)ncc2F)c2cc(F)c(C(=O)NC3(C)CCS(=O)(=O)CC3)cc21 [Example 115, 1-(2-(2,2-difluoroethoxy)-5-fluoropyridin-4-yl)-6-fluoro-3-isopropyl-N-(4-methyl-1,1-dioxidotetrahydro-2H-thiopyran-4-yl)-2-oxo-2,3-dihydro-1H-benzo[d]imidazole-5-carboxamide]		4.1
CCOc1cc(-n2c(=O)n(C(C)C)c3cc(C(=O)NC4(C)CS(=O)(=O)C4)c(F)cc32)c(F)cn1 [Example 116, 1-(2-ethoxy-5-fluoropyridin-4-yl)-6-fluoro-3-isopropyl-N-(3-methyl-1,1-dioxidothietan-3-yl)-2-oxo-2,3-dihydro-1H-benzo[d]imidazole-5-carboxamide]	93	
CCOc1cc(-n2c(=O)n(C(C)C)c3cc(C(=O)NC4(C(F)F)CCS(=O)(=O)CC4)c(F)cc32)c(F)cn1 [Example 117, N-(4-(difluoromethyl)-1,1-dioxidotetrahydro-2H-thiopyran-4-yl)-1-(2-ethoxy-5-fluoropyridin-4-yl)-6-fluoro-3-isopropyl-2-oxo-2,3-dihydro-1H-benzo[d]imidazole-5-carboxamide]	27	
CC(C)n1c(=O)n(-c2cc(OC(F)(F)C(F)F)ccn2)c2cc(F)c(C(=O)NC3(C)CCS(=O)(=O)CC3)cc21 [Example 118, 6-fluoro-3-isopropyl-N-(4-methyl-1,1-dioxidotetrahydro-2H-thiopyran-4-yl)-2-oxo-1-(4-(1,1,2,2-tetrafluoroethoxy)pyridin-2-yl)-2,3-dihydro-1H-benzo[d]imidazole-5-carboxamide]	5.5	
CC(C)n1c(=O)n(-c2cc(OCC(F)F)ccn2)c2ccc(C(=O)NC3(C)CCS(=O)(=O)CC3)cc21 [Example 119, 1-(4-(2,2-difluoroethoxy)pyridin-2-yl)-3-isopropyl-N-(4-methyl-1,1-dioxidotetrahydro-2H-thiopyran-4-yl)-2-oxo-2,3-dihydro-1H-benzo[d]imidazole-5-carboxamide]	51	
CC(C)n1c(=O)n(-c2cc(OC(F)(F)C(F)F)ccn2)c2ccc(C(=O)NC3(C)CCS(=O)(=O)CC3)cc21 [Example 120, 3-isopropyl-N-(4-methyl-1,1-dioxidotetrahydro-2H-thiopyran-4-yl)-2-oxo-1-(4-(1,1,2,2-tetrafluoroethoxy)pyridin-2-yl)-2,3-dihydro-1H-benzo[d]imidazole-5-carboxamide]	3.2	
CC(C)n1c(=O)n(-c2cc(OCC(F)F)ccn2)c2cc(F)c(C(=O)NC3(C)CCS(=O)(=O)CC3)cc21 [Example 121, 1-(4-(2,2-difluoroethoxy)pyridin-2-yl)-6-fluoro-3-isopropyl-N-(4-methyl-1,1-dioxidotetrahydro-2H-thiopyran-4-yl)-2-oxo-2,3-dihydro-1H-benzo[d]imidazole-5-carboxamide]	92	
CC(C)n1c(=O)n(-c2cc(OC(F)F)ncc2F)c2cc(F)c(C(=O)NC3(C)CCS(=O)(=O)CC3)cc21 [Example 122, 1-(2-(difluoromethoxy)-5-fluoropyridin-4-yl)-6-fluoro-3-isopropyl-N-(4-methyl-1,1-dioxidotetrahydro-2H-thiopyran-4-yl)-2-oxo-2,3-dihydro-1H-benzo[d]imidazole-5-carboxamide]		56
CC(C)n1c(=O)n(-c2cc(OC(F)F)ncc2F)c2cc(F)c(C(=O)NC3(C)CS(=O)(=O)C3)cc21 [Example 123, 1-(2-(difluoromethoxy)-5-fluoropyridin-4-yl)-6-fluoro-3-isopropyl-N-(3-methyl-1,1-dioxidothietan-3-yl)-2-oxo-2,3-dihydro-1H-benzo[d]imidazole-5-carboxamide]	73	
CC(C)n1c(=O)n(-c2cccc(OC(F)F)c2)c2ccc(C(=O)N[C@@]3(C)CCS(=O)(=O)C3)c(F)c21 [Example 124, (S)-1-(3-(Difluoromethoxy)phenyl)-4-fluoro-3-isopropyl-N-(3-methyl-1,1-dioxidotetrahydrothiophen-3-yl)-2-oxo-2,3-dihydro-1H-benzo[d]imidazole-5-carboxamide]		191
CC(C)n1c(=O)n(-c2cccc(OC(F)F)c2)c2ccc(C(=O)N[C@]3(C)CCS(=O)(=O)C3)c(F)c21 [Example 125, (R)-1-(3-(Difluoromethoxy)phenyl)-4-fluoro-3-isopropyl-N-(3-methyl-1,1-dioxidotetrahydrothiophen-3-yl)-2-oxo-2,3-dihydro-1H-benzo[d]imidazole-5-carboxamide]	203	
CC(C)n1c(=O)n(-c2cccc(OC(F)F)c2)c2ccc(C(=O)NC3(C)CCS(=O)(=O)CC3)c(F)c21 [Example 126, 1-(3-(Difluoromethoxy)phenyl)-4-fluoro-3-isopropyl-N-(4-methyl-1,1-dioxidotetrahydro-2H-thiopyran-4-yl)-2-oxo-2,3-dihydro-1H-benzo[d]imidazole-5-carboxamide]	257	
